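Each compound was tested at five concentrations against cells in 96-well plates for 48 hours. GI50 is the concentration that inhibits growth by half. TGI is the concentration that stops growth completely.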
Tests used:
Test in all cases: growth of human tumour cells (NCI), 48 h
786-0 renal = tested on: 786-0 renal
A498 renal = tested on: A498 renal
ACHN renal = tested on: ACHN renal
BT-549 breast = tested on: BT-549 breast
CAKI-1 renal = tested on: CAKI-1 renal
COLO 205 colon = tested on: COLO 205 colon
DU-145 prostate = tested on: DU-145 prostate
EKVX NSCLC = tested on: EKVX NSCLC
HCT-116 colon = tested on: HCT-116 colon
HCT-15 colon = tested on: HCT-15 colon
HOP-62 NSCLC = tested on: HOP-62 NSCLC
HOP-92 NSCLC = tested on: HOP-92 NSCLC
HT29 colon = tested on: HT29 colon
KM12 colon = tested on: KM12 colon
LOX IMVI melanoma = tested on: LOX IMVI melanoma
MALME-3M melanoma = tested on: MALME-3M melanoma
MDA-MB-231 breast = tested on: MDA-MB-231 breast
MDA-MB-435 = tested on: MDA-MB-435
MOLT-4 leukemia = tested on: MOLT-4 leukemia
NCI-H226 lung = tested on: NCI-H226 lung
NCI-H23 lung = tested on: NCI-H23 lung
NCI-H522 lung = tested on: NCI-H522 lung
NCI/ADR-RES ovarian = tested on: NCI/ADR-RES ovarian
OVCAR-3 ovarian = tested on: OVCAR-3 ovarian
OVCAR-4 ovarian = tested on: OVCAR-4 ovarian
OVCAR-5 ovarian = tested on: OVCAR-5 ovarian
OVCAR-8 ovarian = tested on: OVCAR-8 ovarian
RPMI-8226 leukemia = tested on: RPMI-8226 leukemia
RXF 393 renal = tested on: RXF 393 renal
SF-268 CNS = tested on: SF-268 CNS
SF-295 CNS = tested on: SF-295 CNS
SF-539 CNS = tested on: SF-539 CNS
SK-MEL-28 melanoma = tested on: SK-MEL-28 melanoma
SK-MEL-5 melanoma = tested on: SK-MEL-5 melanoma
SK-OV-3 ovarian = tested on: SK-OV-3 ovarian
SN12C renal = tested on: SN12C renal
SNB-75 CNS = tested on: SNB-75 CNS
SW-620 colon = tested on: SW-620 colon
T-47D breast = tested on: T-47D breast
TK-10 renal = tested on: TK-10 renal
U251 CNS = tested on: U251 CNS
UACC-257 melanoma = tested on: UACC-257 melanoma
A549 NSCLC = tested on: A549 NSCLC
CCRF-CEM leukemia = tested on: CCRF-CEM leukemia
HL-60(TB) leukemia = tested on: HL-60(TB) leukemia
HS 578T breast = tested on: HS 578T breast
IGROV1 ovarian = tested on: IGROV1 ovarian
K-562 leukemia = tested on: K-562 leukemia
M14 melanoma = tested on: M14 melanoma
MCF7 breast = tested on: MCF7 breast
NCI-H460 lung = tested on: NCI-H460 lung
PC-3 prostate = tested on: PC-3 prostate
SK-MEL-2 melanoma = tested on: SK-MEL-2 melanoma
SNB-19 CNS = tested on: SNB-19 CNS
SR leukemia = tested on: SR leukemia
UACC-62 melanoma = tested on: UACC-62 melanoma
UO-31 renal = tested on: UO-31 renal

## Cc1cc2nc3c(C#N)c4c(c(Nc5ccc(Cl)cc5)n3c2cc1C)CCC4
786-0 renal
  TGI: 29.3 µM
A498 renal
  TGI: > 100 µM
ACHN renal
  TGI: 43.3 µM
BT-549 breast
  TGI: 44.8 µM
CAKI-1 renal
  TGI: 41.4 µM
COLO 205 colon
  TGI: 59.1 µM
DU-145 prostate
  TGI: 75.1 µM
EKVX NSCLC
  TGI: > 100 µM
HCT-116 colon
  TGI: 30.4 µM
HCT-15 colon
  TGI: 36.7 µM
HOP-62 NSCLC
  TGI: > 100 µM
HOP-92 NSCLC
  TGI: 47.8 µM
HT29 colon
  TGI: 32 µM
KM12 colon
  TGI: > 100 µM
LOX IMVI melanoma
  TGI: 32.8 µM
MALME-3M melanoma
  TGI: 55 µM
MDA-MB-231 breast
  TGI: 42.8 µM
MDA-MB-435
  TGI: > 100 µM
MOLT-4 leukemia
  TGI: > 100 µM
NCI-H226 lung
  TGI: 64.7 µM
NCI-H23 lung
  TGI: 57.2 µM
NCI-H522 lung
  TGI: 26.5 µM
NCI/ADR-RES ovarian
  TGI: 48.1 µM
OVCAR-3 ovarian
  TGI: 35.4 µM
OVCAR-4 ovarian
  TGI: > 100 µM
OVCAR-5 ovarian
  TGI: 36.3 µM
OVCAR-8 ovarian
  TGI: 35.5 µM
RPMI-8226 leukemia
  TGI: 32.7 µM
RXF 393 renal
  TGI: 33.8 µM
SF-268 CNS
  TGI: 33.6 µM
SF-295 CNS
  TGI: > 100 µM
SF-539 CNS
  TGI: 48.7 µM
SK-MEL-28 melanoma
  TGI: 47.2 µM
SK-MEL-5 melanoma
  TGI: 32.9 µM
SK-OV-3 ovarian
  TGI: > 100 µM
SN12C renal
  TGI: 34.4 µM
SNB-75 CNS
  TGI: > 100 µM
SW-620 colon
  TGI: 34 µM
T-47D breast
  TGI: 86.3 µM
TK-10 renal
  TGI: 40.9 µM
U251 CNS
  TGI: 32.9 µM
UACC-257 melanoma
  TGI: 76.6 µM

## Nc1cc(N)c2nc(-c3ccccc3)c(Oc3ccc(Cl)c(Cl)c3)nc2c1
786-0 renal
  GI50: 19.4 µM
  TGI: 41.2 µM
A498 renal
  GI50: 442 nM
  TGI: 12.3 µM
A549 NSCLC
  GI50: 18.1 µM
  TGI: 43.5 µM
CAKI-1 renal
  GI50: 14.5 µM
  TGI: 35.9 µM
CCRF-CEM leukemia
  GI50: 2980 nM
  TGI: > 100 µM
COLO 205 colon
  GI50: 20.6 µM
  TGI: 67.8 µM
DU-145 prostate
  TGI: 27.1 µM
EKVX NSCLC
  GI50: 2160 nM
  TGI: 8.35 µM
HCT-116 colon
  GI50: 15.7 µM
  TGI: 48.3 µM
HCT-15 colon
  GI50: 20 µM
  TGI: > 100 µM
HL-60(TB) leukemia
  GI50: 5.15 µM
  TGI: > 100 µM
HOP-62 NSCLC
  GI50: 16.9 µM
  TGI: 37.9 µM
HS 578T breast
  GI50: 10.6 µM
  TGI: 33.7 µM
IGROV1 ovarian
  GI50: 11.4 µM
  TGI: 32.2 µM
K-562 leukemia
  GI50: 3.55 µM
  TGI: > 100 µM
KM12 colon
  GI50: 6.38 µM
  TGI: 39.8 µM
LOX IMVI melanoma
  GI50: 16.1 µM
  TGI: 34 µM
M14 melanoma
  GI50: 14.1 µM
  TGI: 70.3 µM
MALME-3M melanoma
  GI50: 15.8 µM
  TGI: 37.4 µM
MCF7 breast
  GI50: 14.2 µM
  TGI: 70.6 µM
MDA-MB-231 breast
  GI50: 10.3 µM
  TGI: 26.2 µM
MDA-MB-435
  GI50: 5.03 µM
  TGI: 21.1 µM
MOLT-4 leukemia
  GI50: 6.28 µM
  TGI: > 100 µM
NCI-H226 lung
  GI50: 15.1 µM
  TGI: 49.5 µM
NCI-H23 lung
  GI50: 15.6 µM
  TGI: 39.9 µM
NCI-H460 lung
  GI50: 18.4 µM
  TGI: 71.4 µM
NCI-H522 lung
  GI50: 8.34 µM
  TGI: 33.7 µM
NCI/ADR-RES ovarian
  GI50: 11.8 µM
  TGI: 36.1 µM
OVCAR-3 ovarian
  GI50: 10.8 µM
  TGI: 26.9 µM
OVCAR-4 ovarian
  GI50: 33 µM
  TGI: > 100 µM
OVCAR-5 ovarian
  GI50: 25.4 µM
  TGI: 58.3 µM
OVCAR-8 ovarian
  GI50: 27.9 µM
  TGI: 88.4 µM
PC-3 prostate
  GI50: 15.5 µM
  TGI: > 100 µM
RPMI-8226 leukemia
  GI50: 3.51 µM
  TGI: > 100 µM
RXF 393 renal
  GI50: 25.2 µM
  TGI: 85.4 µM
SF-268 CNS
  GI50: 17.1 µM
  TGI: 52.5 µM
SF-295 CNS
  GI50: 13.9 µM
  TGI: 31 µM
SF-539 CNS
  GI50: 13.5 µM
  TGI: 29.5 µM
SK-MEL-2 melanoma
  GI50: 5.63 µM
  TGI: 23.3 µM
SK-MEL-28 melanoma
  GI50: 21.5 µM
  TGI: 64.2 µM
SK-MEL-5 melanoma
  GI50: 9.77 µM
  TGI: 28.7 µM
SK-OV-3 ovarian
  GI50: 23.9 µM
  TGI: 65.9 µM
SN12C renal
  GI50: 14.5 µM
  TGI: 31.4 µM
SNB-19 CNS
  GI50: 20.9 µM
  TGI: 52.5 µM
SR leukemia
  GI50: 3.36 µM
  TGI: 24.2 µM
SW-620 colon
  GI50: 9.69 µM
  TGI: 30.1 µM
T-47D breast
  GI50: 24.5 µM
  TGI: 79.1 µM
TK-10 renal
  GI50: 17.6 µM
  TGI: 38 µM
U251 CNS
  GI50: 12.1 µM
  TGI: 31.9 µM
UACC-257 melanoma
  GI50: 28.5 µM
  TGI: 87.2 µM
UACC-62 melanoma
  GI50: 16.3 µM
  TGI: 48.2 µM
UO-31 renal
  GI50: 13.3 µM
  TGI: 60.7 µM
